Results as given in patent US8937183B2, “Detection of hydrogen peroxide” (Promega Corporation, priority 2011, dated 2015).

Assay: Signal strength differences due to reaction pH and buffer composition (hydrogen peroxide, D-cysteine conversion, LDR)
Assay type: biochemical
Conditions: for Net Average Signals at 15 Minutes / Net Average Signals at 60 Minutes / Net Average Signals at 105 Minutes: 100 μl of 10 μM H2O2 added
Experimental: A 30 μl sample of 4 mg/ml PBI 4458 in DMSO was diluted to 1.5 ml with Nanopure water, and 50 μl added to wells A1-12 and E1-12 of a microtiter plate. A 30 μl sample of 4 mg/ml PBI 4472 in DMSO was diluted to 1.5 ml with Nanopure, and 50 μl added to wells B1-12 and F1-12 of the plate. A 30 μl sample of 4 mg/ml PBI 4480 in DMSO was diluted to 1.5 ml with Nanopure water, and 50 μl added to wells C1-12 and G1-12 of the plate. A 30 μl sample of 4 mg/ml PBI 4481 in DMSO was diluted to 1.5 ml with Nanopure water, and 50 μl added to wells D1-12 and H1-12 of the plate. To the plate, a 50 μl sample of 200 mM KHPO4, pH 7.4 was added to wells A1-D4; 50 μl 200 mM Tris buffer, pH 7.4 was added to wells A5-D8; 50 μl 250 mM HEPES buffer, pH 7.5 was added to wells A9-D12; 50 μl 200 mM KHPO4 buffer, pH 9.2 was added to wells E1-H4; 50 μl 250 mM Tris buffer, pH 10.4 was added to wells E5-H8; and 50 μl 100 mM CAPS buffer, pH 10.4 was added to wells E9-H12.
A sample of hydrogen peroxide (30%, Sigma, H1009-5 ml) was diluted to 10 μM with Nanopure water, and 100 μl added to columns 3, 4, 7, 8, 11, 12 wells A-H of the plate. 100 μl Nanopure water was added to columns 1, 2, 5, 6, 9 and 10 of the plate. The plate was incubated at room temperature for 15 minutes.
A conversion solution was made by mixing 5 ml of 1 M HEPES buffer, pH 7.5, 4.9 ml of Nanopure water and 100 μl of 100 mM D-cysteine (in Nanopure water), and […] added to all wells of a luminometer plate.
After incubation, 25 μl of sample from all wells in the plate was transferred and mixed into the corresponding wells in the luminometer plate, incubated 2-3 minutes at room temperature, and 50 μl LDR (Example 23) added. The luminometer plate was incubated for 15 minutes at room temperature, and bioluminescence detected on a GloMax® luminometer.
Additional samples were taken at 60 and 105 minutes and added to a fresh luminometer plates containing 25 μl of conversion solution in all wells. The plates were then incubated for 15 minutes at room temperature, and bioluminescence detected as previously described.

SMILES	Signal to Background Ratios at 15 Minutes (CAPS pH 10.4, 15 minutes)	Net Average Signals at 15 Minutes (CAPS pH 10.4, 15 minutes)	Signal to Background Ratios at 60 Minutes (CAPS pH 10.4, 60 minutes)	Net Average Signals at 60 Minutes (CAPS pH 10.4, 60 minutes)	Signal to Background Ratios at 105 Minutes (CAPS pH 10.4, 105 minutes)	Net Average Signals at 105 Minutes (CAPS pH 10.4, 105 minutes)	Signal to Background Ratios at 15 Minutes (HEPES pH 7.5, 15 minutes)	Net Average Signals at 15 Minutes (HEPES pH 7.5, 15 minutes)	Signal to Background Ratios at 60 Minutes (HEPES pH 7.5, 60 minutes)	Net Average Signals at 60 Minutes (HEPES pH 7.5, 60 minutes)	Signal to Background Ratios at 105 Minutes (HEPES pH 7.5, 105 minutes)	Net Average Signals at 105 Minutes (HEPES pH 7.5, 105 minutes)	Net Average Signals at 15 Minutes (KPO4 Ph 7.4, 15 minutes)	Signal to Background Ratios at 15 Minutes (KPO4 pH 7.4, 15 minutes)	Signal to Background Ratios at 60 Minutes (KPO4 pH 7.4, 60 minutes)	Net Average Signals at 60 Minutes (KPO4 pH 7.4, 60 minutes)	Signal to Background Ratios at 105 Minutes (KPO4 pH 7.4, 105 minutes)	Net Average Signals at 105 Minutes (KPO4 pH 7.4, 105 minutes)	Signal to Background Ratios at 15 Minutes (KPO4 pH 9.2, 15 minutes)	Net Average Signals at 15 Minutes (KPO4 pH 9.2, 15 minutes)	further results
CC1(C)OB(/C=C/COc2ccc3nc(C#N)sc3c2)OC1(C)C [PBI 4458, (E)-6-((3-(4,4,5,5-tetramethyl-1,3,2-dioxaborolan-2-yl)allyl)oxy)-benzo[d]thiazole-2-carbonitrile]	13.2	4,577,774 RLU	12.1	5,831,485 RLU	9.6	8,063,108 RLU	2.0	117,752 RLU	4.5	494,958 RLU	5.7	1,033,511 RLU	148,190 RLU	2.2	4.5	615,057 RLU	5.4	1,297,857 RLU	6.4	937,111 RLU	Signal to Background Ratios at 60 Minutes (KPO4 pH 9.2, 60 minutes): 9.5; Net Average Signals at 60 Minutes (KPO4 pH 9.2, 60 minutes): 2,490,775 RLU; Signal to Background Ratios at 105 Minutes (KPO4 pH 9.2, 105 minutes): 9.1; Net Average Signals at 105 Minutes (KPO4 pH 9.2, 105 minutes): 4,925,484 RLU; Signal to Background Ratios at 15 Minutes (TRIS pH 10.4, 15 minutes): 15.2; Net Average Signals at 15 Minutes (TRIS pH 10.4, 15 minutes): 2,348,900 RLU; Signal to Background Ratios at 60 Minutes (TRIS pH 10.4, 60 minutes): 19.4; Net Average Signals at 60 Minutes (TRIS pH 10.4, 60 minutes): 3,795,644 RLU; Signal to Background Ratios at 105 Minutes (TRIS pH 10.4, 105 minutes): 15.7; Net Average Signals at 105 Minutes (TRIS pH 10.4, 105 minutes): 5,482,012 RLU; Signal to Background Ratios at 15 Minutes (Tris pH 7.4, 15 minutes): 2.2; Net Average Signals at 15 Minutes (Tris pH 7.4, 15 minutes): 150,205 RLU; Signal to Background Ratios at 60 Minutes (Tris pH 7.4, 60 minutes): 4.6; Net Average Signals at 60 Minutes (Tris pH 7.4, 60 minutes): 626,927 RLU; Signal to Background Ratios at 105 Minutes (Tris pH 7.4, 105 minutes): 6.0; Net Average Signals at 105 Minutes (Tris pH 7.4, 105 minutes): 1,274,061 RLU
CC1(C)OB(c2ccc(COc3ccc4nc(C#N)sc4c3)cc2)OC1(C)C [PBI 4472, 6-((4-(4,4,5,5-tetramethyl-1,3,2-dioxaborolan-2-yl)benzyl)oxy)benzo-[d]thiazole-2-carbonitrile]	17.0	3,154,440 RLU	15.4	5,425,701 RLU	11.3	7,554,957 RLU	3.9	58,399 RLU	8.0	159,982 RLU	8.2	259,725 RLU	43,867 RLU	3.1	4.9	102,614 RLU	5.3	168,787 RLU	11.0	400,087 RLU	Signal to Background Ratios at 60 Minutes (KPO4 pH 9.2, 60 minutes): 14.7; Net Average Signals at 60 Minutes (KPO4 pH 9.2, 60 minutes): 781,296 RLU; Signal to Background Ratios at 105 Minutes (KPO4 pH 9.2, 105 minutes): 14.6; Net Average Signals at 105 Minutes (KPO4 pH 9.2, 105 minutes): 1,380,626 RLU; Signal to Background Ratios at 15 Minutes (TRIS pH 10.4, 15 minutes): 32.9; Net Average Signals at 15 Minutes (TRIS pH 10.4, 15 minutes): 1,530,303 RLU; Signal to Background Ratios at 60 Minutes (TRIS pH 10.4, 60 minutes): 34.2; Net Average Signals at 60 Minutes (TRIS pH 10.4, 60 minutes): 3,777,236 RLU; Signal to Background Ratios at 105 Minutes (TRIS pH 10.4, 105 minutes): 26.5; Net Average Signals at 105 Minutes (TRIS pH 10.4, 105 minutes): 6,279,007 RLU; Signal to Background Ratios at 15 Minutes (Tris pH 7.4, 15 minutes): 6.6; Net Average Signals at 15 Minutes (Tris pH 7.4, 15 minutes): 121,480 RLU; Signal to Background Ratios at 60 Minutes (Tris pH 7.4, 60 minutes): 13.2; Net Average Signals at 60 Minutes (Tris pH 7.4, 60 minutes): 371,397 RLU; Signal to Background Ratios at 105 Minutes (Tris pH 7.4, 105 minutes): 13.6; Net Average Signals at 105 Minutes (Tris pH 7.4, 105 minutes): 658,967 RLU
CC1(C)OB(c2ccc(COc3ccc4nc(C#N)sc4c3)c3ccccc23)OC1(C)C [PBI 4480, 6-((4-(4,4,5,5-tetramethyl-1,3,2-dioxaborolan-2-yl)naphthalen-1-yl)methoxy)benzo[d]thiazole-2-carbonitrile]	12.1	1,799,015 RLU	14.7	4,256,769 RLU	12.6	7,150,225 RLU	1.0	−234 RLU	1.7	29,727 RLU	2.3	75,066 RLU	3,538 RLU	1.1	1.6	38,198 RLU	1.9	86,881 RLU	1.7	37,330 RLU	Signal to Background Ratios at 60 Minutes (KPO4 pH 9.2, 60 minutes): 3.6; Net Average Signals at 60 Minutes (KPO4 pH 9.2, 60 minutes): 218,078 RLU; Signal to Background Ratios at 105 Minutes (KPO4 pH 9.2, 105 minutes): 5.1; Net Average Signals at 105 Minutes (KPO4 pH 9.2, 105 minutes): 587,867 RLU; Signal to Background Ratios at 15 Minutes (TRIS pH 10.4, 15 minutes): 11.1; Net Average Signals at 15 Minutes (TRIS pH 10.4, 15 minutes): 743,427 RLU; Signal to Background Ratios at 60 Minutes (TRIS pH 10.4, 60 minutes): 17.9; Net Average Signals at 60 Minutes (TRIS pH 10.4, 60 minutes): 1,903,885 RLU; Signal to Background Ratios at 105 Minutes (TRIS pH 10.4, 105 minutes): 17.5; Net Average Signals at 105 Minutes (TRIS pH 10.4, 105 minutes): 3,541,742 RLU; Signal to Background Ratios at 15 Minutes (Tris pH 7.4, 15 minutes): 1.2; Net Average Signals at 15 Minutes (Tris pH 7.4, 15 minutes): 7,845 RLU; Signal to Background Ratios at 60 Minutes (Tris pH 7.4, 60 minutes): 2.0; Net Average Signals at 60 Minutes (Tris pH 7.4, 60 minutes): 61,031 RLU; Signal to Background Ratios at 105 Minutes (Tris pH 7.4, 105 minutes): 2.6; Net Average Signals at 105 Minutes (Tris pH 7.4, 105 minutes): 162,663 RLU
